Test results reported in US20150328191A1, “USE OF PIDOTIMOD TO TREAT PSORIASIS” (POLICHEM S.A., priority 2012, published 2015).
Peptide text beside a SMILES is read from it.

Test system: psoriatic patients (mild psoriasis)
Assay: Evaluation of pidotimod in psoriatic patients by PASI evaluation; safety also evaluated
Type: in vivo, human
Conditions: 800 mg daily oral, 12 weeks
Procedure: An evaluation of the activity of pidotimod was tested on psoriatic patients, in order to assess the efficacy in terms of improvement of the pathology by means of PASI evaluation. The safety of the treatment was also evaluated. The study was performed in 5 patients (3 males and 2 females, aged between 31-53, mean=42) with a clinical diagnosis of mild psoriasis of at least 6 months. […] The body surface area involvement at the baseline was ≦10% with a PASI value ≦10.
The study product was taken with the composition of the Example 6 at a dosage of two oral vials daily, i.e. 800 mg daily of the active ingredient, taken far from mealtimes.
During the trial, the following visits were performed: • baseline—T0 (before the product use) • intermediate visit—T6 (after 6 weeks of treatment) • final visit—T12 (after 12 weeks of treatment)
No relevant event, which may have interfered to the test results, occurred during the study period.
The efficacy of the product was expressed by mean of values of PASI evaluation, assessing the PASI at the baseline and at the intermediate visit and the final one.

O=C1CC[C@@H](C(=O)N2CSC[C@H]2C(=O)O)N1 [pidotimod, (4R)-3-(5-oxo-L-prolyl)-1,3-thiazolidine-4-carboxylic acid] (HELM PEPTIDE1{[Glp].[O=C(O)[C@@H]1CSCN1[*:1]]}$$$$V2.0)
Side effects (5 patients): no side effects were reported
Tolerability of the treatment (5 patients): very well tolerated
Student t test p for decrease of the PASI value at T12 (end of treatment) vs. T0 (baseline) (5 patients, statistically significant decrease): < 0.05
Improvement in the clinical evidences of the illness (all 5 patients): important improvement
